In BindingDB's records for doi:10.1016/j.bmc.2018.08.021 (Zhengzhou University, 2018):

Tests used:
[1] = Inhibition of ABCB1 in human SW620/Ad300 cells assessed as potentiation of cisplatin-induced cytotoxicity by measuring cisplatin IC50 at 4 uM after 72 hrs by MTT assay (Rvb = 0.61 +/- 0.03 microM)
[2] = Inhibition of ABCB1 in human SW620/Ad300 cells assessed as potentiation of cisplatin-induced cytotoxicity by measuring cisplatin IC50 at 10 uM after 72 hrs by MTT assay (Rvb = 0.61 +/- 0.03 microM)
[3] = Inhibition of ABCB1 in human SW620/Ad300 cells assessed as potentiation of cisplatin-induced cytotoxicity by measuring cisplatin IC50 at 20 uM after 72 hrs by MTT assay (Rvb = 0.61 +/- 0.03 microM)
[4] = Inhibition of ABCB1 in human SW620/Ad300 cells assessed as potentiation of paclitaxel-induced cytotoxicity by measuring paclitaxel IC50 at 4 uM after 72 hrs by MTT assay (Rvb = 3.39 +/- 0.84 microM)
[5] = Inhibition of ABCB1 in human SW620/Ad300 cells assessed as potentiation of paclitaxel-induced cytotoxicity by measuring paclitaxel IC50 at 10 uM after 72 hrs by MTT assay (Rvb = 3.39 +/- 0.84 microM)
[6] = Inhibition of ABCB1 in human SW620/Ad300 cells assessed as potentiation of paclitaxel-induced cytotoxicity by measuring paclitaxel IC50 at 20 uM after 72 hrs by MTT assay (Rvb = 3.39 +/- 0.84 microM)
[7] = Inhibition of ABCB1 in human SW620/Ad300 cells assessed as potentiation of doxorubicin-induced cytotoxicity by measuring doxorubicin IC50 at 4 uM after 72 hrs by MTT assay (Rvb = 6.15 +/- 0.63 microM)
[8] = Inhibition of ABCB1 in human SW620/Ad300 cells assessed as potentiation of doxorubicin-induced cytotoxicity by measuring doxorubicin IC50 at 10 uM after 72 hrs by MTT assay (Rvb = 6.15 +/- 0.63 microM)
[9] = Inhibition of ABCB1 in human SW620/Ad300 cells assessed as potentiation of doxorubicin-induced cytotoxicity by measuring doxorubicin IC50 at 20 uM after 72 hrs by MTT assay (Rvb = 6.15 +/- 0.63 microM)
[10] = Inhibition of ABCB1 (unknown origin) expressed in HEK293T cells assessed as potentiation of cisplatin-induced cytotoxicity by measuring cisplatin IC50 at 4 uM after 72 hrs by MTT assay (Rvb = 7.22 +/- 0.45 microM)
[11] = Inhibition of ABCB1 (unknown origin) expressed in HEK293T cells assessed as potentiation of cisplatin-induced cytotoxicity by measuring cisplatin IC50 at 10 uM after 72 hrs by MTT assay (Rvb = 7.22 +/- 0.45 microM)
[12] = Inhibition of ABCB1 (unknown origin) expressed in HEK293T cells assessed as potentiation of cisplatin-induced cytotoxicity by measuring cisplatin IC50 at 20 uM after 72 hrs by MTT assay (Rvb = 7.22 +/- 0.45 microM)
[13] = Inhibition of ABCB1 (unknown origin) expressed in HEK293T cells assessed as potentiation of paclitaxel-induced cytotoxicity by measuring paclitaxel IC50 at 4 uM after 72 hrs by MTT assay (Rvb = 0.09 +/- 0.02 microM)
[14] = Inhibition of ABCB1 (unknown origin) expressed in HEK293T cells assessed as potentiation of paclitaxel-induced cytotoxicity by measuring paclitaxel IC50 at 10 uM after 72 hrs by MTT assay (Rvb = 0.09 +/- 0.02 microM)
[15] = Inhibition of ABCB1 (unknown origin) expressed in HEK293T cells assessed as potentiation of paclitaxel-induced cytotoxicity by measuring paclitaxel IC50 at 20 uM after 72 hrs by MTT assay (Rvb = 0.09 +/- 0.02 microM)
[16] = Inhibition of ABCB1 (unknown origin) expressed in HEK293T cells assessed as potentiation of doxorubicin-induced cytotoxicity by measuring doxorubicin IC50 at 4 uM after 72 hrs by MTT assay (Rvb = 1.17 +/- 0.09 microM)
[17] = Inhibition of ABCB1 (unknown origin) expressed in HEK293T cells assessed as potentiation of doxorubicin-induced cytotoxicity by measuring doxorubicin IC50 at 10 uM after 72 hrs by MTT assay (Rvb = 1.17 +/- 0.09 microM)
[18] = Inhibition of ABCB1 (unknown origin) expressed in HEK293T cells assessed as potentiation of doxorubicin-induced cytotoxicity by measuring doxorubicin IC50 at 20 uM after 72 hrs by MTT assay (Rvb = 1.17 +/- 0.09 microM)

O=c1cc(-c2ccccc2)[nH]c2nc(SCc3nc4ccccc4[nH]3)nn12
IC50 [1]: 1590 nM | IC50 [2]: 1550 nM | IC50 [3]: 1640 nM | IC50 [4]: 830 nM | IC50 [5]: 1470 nM | IC50 [6]: 660 nM | IC50 [7]: 920 nM | IC50 [8]: 1280 nM | IC50 [9]: 800 nM | IC50 [10]: 7100 nM | IC50 [11]: 8260 nM | IC50 [12]: 7160 nM | IC50 [13]: 30 nM | IC50 [14]: 50 nM | IC50 [15]: 40 nM | IC50 [16]: 290 nM | IC50 [17]: 380 nM | IC50 [18]: 290 nM
